The text below walks through data of patent US4565774A, “Method for the formation of dye image” (priority 1981, dated 1986).

The structures appear in SMILES notation.

One series is described as follows: acid dissociation constant (Ka) of the added compound, measured at a normal temperature.
Conditions: not given
The series is classed as physicochemical. The method, then:
The acid dissociation constant value is what was measured at a normal temperature, and is described in, e.g., the annex vol. 2 to the "Dai Yuki-Kagaku (Complete Organic Chemistry)" (published by Asakura Publishing Co., Ltd.), "The Theory of Photographic Process" written by T. H. James, 4th ed. (Published by McMillan), and the like. For the measurement of the acid dissociation constant there are several methods, and reference may be made to, e.g., the "Jikken Kagaku Koza (Course of Experimental Chemistry)" vol. 11, second series, (published by Maruzen Co., Ltd.) pp. 524 to 552, and the like.
To the above-prepared developer was added each of the compounds as given in Table 1 to thereby prepare color developers [A] to [M].
The compound `Nc1ncnc2nc[nH]c12` [Exemplified compound S-11] showed a pKa of 9.8.

Staying with this series, now noted: normal temperature; read-out: acid dissociation constant (Ka) (converted).
With `c1c[nH]cn1` [Comparative compound (1), Imidazole], the pKa is 7.2.

For `Cc1cc(O)n2ncnc2n1` [Comparative compound (2), 4-hydroxy-6-methyl-1,3,3a,7-tetrazaindene], the pKa was 6.49.

With `Sc1nnnn1-c1ccccc1` [Comparative compound (3), 1-phenyl-5-mercaptotetrazole], the pKa was 3.34.

As for `c1ccc2[nH]cnc2c1` [Exemplified compound S-1], the pKa was 11.7.

As for `CCCc1ccc2nc[nH]c2c1` [Exemplified compound S-5], the pKa is 10.3.
